# Patent publication US20180078482A1, “COMPOSITION CONTAINING THEASAPOGENOL DERIVATIVE AS ACTIVE INGREDIENT” (AMOREPACIFIC CORPORATION, priority 2015, published 2018)
# How the values were obtained:
# 5α-reductase = molecular target: T1, 5α-reductase (Homo sapiens, UniProt P31213); assay: Inhibition of 5α-reductase activity ([14C]testosterone to [14C]dihydrotestosterone conversion in HEK293-5αR2 cells); assay type: cell-based; conditions: 2 μg/ml, 2 hours at 37° C.; for Conversion rate (%): radioactivity to DHT area/total radioactivity
# T1 construct: 3×FLAG; expressed in transfected cells; host or cells: HEK293
# T1 sequence (P31213 1-254): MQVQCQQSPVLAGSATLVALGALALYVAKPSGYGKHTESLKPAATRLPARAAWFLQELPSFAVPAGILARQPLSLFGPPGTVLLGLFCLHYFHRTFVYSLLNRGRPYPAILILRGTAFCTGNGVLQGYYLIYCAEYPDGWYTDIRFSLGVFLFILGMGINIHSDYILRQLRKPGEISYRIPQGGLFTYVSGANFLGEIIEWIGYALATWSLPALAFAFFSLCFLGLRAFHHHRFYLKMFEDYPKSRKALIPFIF
# Protocol: The 5α-reductase activity inhibiting effect was measured by the ratio of [^14C]testosterone converted into [^14C]dihydrotestosterone in HEK293-5αR2 cells. HEK293 cells were transfected with p3×FLAG-CMV-5αR2 and incubated in a 24-well plate at a density of 2.5×10^5 cells per well (Park et al., 2003, JDS Vol. 31, pp. 91-98). The next day, the medium was replaced with a fresh medium containing an enzyme substrate and an inhibitor, and 0.05 μCi [^14C]testosterone (Amersham Pharmacia biotech, UK) was used as the substrate of the medium. In order to confirm the degree of inhibition, 2 μg/ml of theasapogenol derivative obtained in Preparation Example 1 was added to the medium as a test substance, and the medium was incubated in a 5% CO2 incubator at 37° C. for 2 hours.
# Thereafter, the incubated mediums were collected and testosterone was extracted with 800 μl of ethyl acetate. The upper organic solvent layer was separated and dried, and the residue was dissolved again in 50 μl of ethyl acetate and developed on the silica plastic sheet kieselgel 60 F254 by using ethyl acetate-hexane (1:1) as a developing solvent. After the plastic sample was dried in the air, a bath system was used to measure the amounts of isotopes, the dried plastic sheet and an x-ray film were placed in a bath cassette together, and the amounts of isotopes in testosterone and dihydrotestosterone remaining on the film after one week were measured.
# (1) Conversion rate: radioactivity to DHT area/total radioactivity
# (2) Inhibition rate: 100×(conversion rate of control group−conversion rate of sample)/conversion rate of control group
# Fibroblasts = assay: Promotion of collagen biosynthesis (procollagen type (I) ELISA in fibroblasts); assay type: cell-based; conditions: 2 μg/ml, 24 hours, untreated group set to 100
# Protocol: The collagen biosynthesis promoting effect of the theasapogenol derivative obtained in Preparation Example 1 was measured in comparison with TGF-beta of a positive control.
# Fibroblasts were seeded by 10^5 in one well of a 24-well plate and incubated until they grew up to about 90%. This was incubated in serum-free DMEM medium for 24 hours and treated with 2 μg/ml of each of the theasapogenol derivative obtained in Preparation Example 1 and TGF-beta, and incubated in a CO2 incubator for 24 hours. Thereafter, the supernatant was taken out and subjected to the observation using the ELISA kit (procollagen type (I)) to determine whether the procollagen increased or decreased. The results are presented in Table 1, and the collagen synthesizing ability was compared by setting the collagen synthesizing ability of the untreated group to 100.
# [1] = 100×(conversion rate of control group−conversion rate of sample)/conversion rate of control group
inhibition at 2 µg/mL (5α-reductase; [1]) [%],Conversion rate (%) (5α-reductase),Inhibition rate (%) (5α-reductase; [1]),Compound,Collagen synthesizing ability (%) (Fibroblasts)
44,27,–,"CC(C)(C)NC(=O)[C@H]1CC[C@H]2[C@@H]3CC[C@H]4NC(=O)C=C[C@]4(C)[C@H]3CC[C@]12C [Finasteride, reference compound]",–
–,30,38,21-O-angeloyltheasapogenol E3 [Preparation Example 1],145.1 ± 12.5
